From patent US20250188032A1, “NITROGEN-CONTAINING HETEROCYCLIC COMPOUNDS AND USES THEREOF” (BNH RESEARCH CO., LTD., priority 2022, published 2025)

Tested on: 293T cells
Experiment: Cytotoxicity test (CCK-8 cell viability) in 293T cells
Assay type: cell-based, human
Conditions: 24 hours co-incubation, 293T cell line, % of control
Procedure: Human undifferentiated neuroblastoma cell line SH-SY5Y and human embryonic kidney cell line (HEK)-293T were purchased from Korean Cell Line Bank (Korea) and Takara (Japan), respectively. Cells were grown in HyClone Minimal Essential Medium (MEM) and Dulbecco's Modified Eagle Medium (DMEM), respectively, supplemented with 10% (v/v) fetal bovine serum (FBS), penicillin (100 U/mL), and streptomycin ([…]). Cells were maintained in a humidified atmosphere of 95% air and 5% CO2 at 37° C. Cells were passaged 10 times at maximum. Cells were dissociated using 0.05% trypsin-EDTA solution and the cells were seeded in new culture dishes for maintenance.
To examine the cytotoxicity of compounds described herein in human cell lines, SH-SY5Y and 293T cells were used. Approximately 8,000 cells (for 293T) and 15,000 cells (for SH-SY5Y) were plated per well of a 96-well plate (SPL Life Sciences Co., Ltd., Pocheon, Korea). After incubating at 37° C. for 24 hours in a humidified atmosphere containing 5% CO2, the culture medium was replaced by a series of concentrations of test compounds diluted in the corresponding culture medium. The time of co-incubation was 24 hours and six replicates were made for each measurement. Finally, 10 μL of CCK-8 reagent (Dojindo Laboratories, Rockville, MD) was added to each well, and after incubation at 37° C. for 3 minutes, the OD at 450 nm was measured using a multifunction microplate reader (Tecan Infinite M200 Pro). These measurements were compared to that of a control and expressed as a percentage of the control to calculate cell viability. The IC50 value was calculated using SPSS software. To do this, the absorbance of the blank wells with only growth medium is subtracted from the values or the wells with cells. The readout value of background (vehicle) was set as a 100% viability, and then the percent viability for each test solution was calculated.
Cell viability (%)=[(As-Ab)/(Ac-Ab)]×100
The data was presented as the mean value and standard error of the mean (S.E.M.). Statistical analysis was performed with the one-way ANOVA with Tukey's post hoc test (GraphPad Prism 5 software package, version 5.02, GraphPad Software Inc. USA). Significance was accepted at p<0.05.

SMILES	Cell viability test results (CCK) 10 uM [%<]	Cell viability test results (CCK) 100 uM [%<]
O=C(O)[C@@H]1CCCN1C(=O)Cc1ccc(F)cc1Cl [BnH12013, (2-(2-chloro-4-fluorophenyl)acetyl)-L-proline]	99	99
C[C@H]1CC[C@@H](C(N)=O)CN1C(=O)Cc1ccc(F)cc1Cl [BnH12022, (3R,6S)-1-(2-(2-chloro-4-fluorophenyl)acetyl)-6-methylpiperidine-3-carboxamide]	99	99
COc1ccc(CC(=O)N2C[C@H](C(=O)O)CC[C@@H]2C)cn1 [BnH12075, (3R,6S)-1-(2-(6-methoxypyridin-3-yl)acetyl)-6-methylpiperidine-3-carboxylic acid]	99	99
CCC(=O)N1C[C@H](C(=O)O)CC[C@@H]1C [BnH12008, (3R,6S)-6-methyl-1-propionylpiperidine-3-carboxylic acid]	95	90
O=C(NO)[C@H]1CCCN1C(=O)Cc1ccc(F)cc1Cl [BnH12014, (R)-1-(2-(2-chloro-4-fluorophenyl)acetyl)-N-hydroxypyrrolidine-2-carboxamide]	99	90
Cc1cccc(CC(=O)N2C[C@H](C(=O)O)CC[C@@H]2C)c1 [BnH12030, (3R,6S)-6-methyl-1-(2-(m-tolyl)acetyl)piperidine-3-carboxylic acid]	95	85
C[C@H]1CC[C@@H](C(=O)O)CN1C(=O)Cc1ccco1 [BnH12035, (3R,6S)-1-(2-(furan-2-yl)acetyl)-6-methylpiperidine-3-carboxylic acid]	90	85
C[C@H]1CC[C@@H](C(=O)O)CN1C(=O)Cc1ccc(Cl)cc1 [BnH12023, (3R,6S)-1-(2-(4-chlorophenyl)acetyl)-6-methylpiperidine-3-carboxylic acid]	95	80
C[C@H]1CC[C@@H](C(=O)O)CN1C(=O)Cc1cncnc1 [BnH12040, (3R,6S)-6-methyl-1-(2-(pyrimidin-5-yl)acetyl)piperidine-3-carboxylic acid]	85	80
CCC1CCC(C(=O)O)CN1C(=O)Cc1ccc(F)cc1Cl (stereo not drawn) [BnH12094, 1-(2-(2-chloro-4-fluorophenyl)acetyl)-6-ethylpiperidine-3-carboxylic acid]	80	70
C[C@H]1CC[C@@H](C(=O)O)CN1C(=O)Cc1ccc(C(C)(C)C)cc1 [BnH12029, (3R,6S)-1-(2-(4-(tert-butyl)phenyl)acetyl)-6-methylpiperidine-3-carboxylic acid]	99	80
Cc1ccc(CC(=O)N2C[C@H](C(=O)O)CC[C@@H]2C)cc1 [BnH12024, (3R,6S)-6-methyl-1-(2-(p-tolyl)acetyl)piperidine-3-carboxylic acid]	99	99
O=C(O)[C@@H]1CCCN(C(=O)Cc2ccc(F)cc2Cl)C1 [BnH12004, (R)-1-(2-(2-chloro-4-fluorophenyl)acetyl)piperidine-3-carboxylic acid]	95	85
C[C@H]1CC[C@@H](C(=O)O)CN1C(=O)Cc1cccc(Cl)c1 [BnH12026, (3R,6S)-1-(2-(3-chlorophenyl)acetyl)-6-methylpiperidine-3-carboxylic acid]	99	99
O=C(NO)[C@@H]1CCCN1C(=O)c1ccccc1 [BnH12019, (S)-1-Benzoyl-N-hydroxypyrrolidine-2-carboxamide]	99	90
C[C@H]1CC[C@@H](C(=O)O)CN1C(=O)Cc1ccc(Br)cc1 [BnH12032, (3R,6S)-1-(2-(4-bromophenyl)acetyl)-6-methylpiperidine-3-carboxylic acid]	99	95
C[C@H]1CC[C@@H](C(=O)O)CN1C(=O)c1ccc(F)cc1Cl [BnH12011, (3R,6S)-1-(2-chloro-4-fluorobenzoyl)-6-methylpiperidine-3-carboxylic acid]	95	95
C[C@@H]1CC[C@H](C(=O)O)CN1C(=O)Cc1ccccc1 [BnH12062, (3S,6R)-6-methyl-1-(2-phenylacetyl)piperidine-3-carboxylic acid]	85	75
C[C@H]1CC[C@@H](C(=O)O)CN1C(=O)Cc1ccc(F)cc1 [BnH12031, (3R,6S)-1-(2-(4-fluorophenyl)acetyl)-6-methylpiperidine-3-carboxylic acid]	90	75
C[C@H]1CC[C@@H](C(=O)O)CN1C(=O)Cc1ccc(Cl)c(Cl)c1 [BnH12028, (3R,6S)-1-(2-(3,4-dichlorophenyl)acetyl)-6-methylpiperidine-3-carboxylic acid]	90	80
C[C@H]1CC[C@@H](C(=O)O)CN1C(=O)Cc1ncccn1 [BnH12041, (3R,6S)-6-methyl-1-(2-(pyrimidin-2-yl)acetyl)piperidine-3-carboxylic acid]	90	70
C[C@H]1CC[C@@H](C(=O)[O-])CN1C(=O)Cc1ccncc1.[Na+] [BnH12033, Sodium (3R,6S)-6-methyl-1-(2-(pyridin-4-yl)acetyl)piperidine-3-carboxylate]	90	65
C[C@H]1CC[C@@H](C(=O)O)CN1C(=O)Cc1ccc(N(C)C)cc1 [BnH12076, (3R,6S)-1-(2-(4-(dimethylamino)phenyl)acetyl)-6-methylpiperidine-3-carboxylic acid]	95	95
C[C@H]1CC[C@@H](C(=O)O)CN1C(=O)Cc1cccs1 [BnH12034, (3R,6S)-6-methyl-1-(2-(thiophen-2-yl)acetyl)piperidine-3-carboxylic acid]	90	85
CCOC(=O)[C@@H]1CC[C@H](C)N(C(=O)Cc2ccc(F)cc2Cl)C1 [BnH12021, Ethyl (3R,6S)-1-(2-(2-chloro-4-fluorophenyl)acetyl)-6-methylpiperidine-3-carboxylate]	90	80
COC(=O)[C@@H]1CC[C@H](C)N(C(=O)Cc2ccc(F)cc2Cl)C1 [BnH12020, Methyl (3R,6S)-1-(2-(2-chloro-4-fluorophenyl)acetyl)-6-methylpiperidine-3-carboxylate]	95	95
O=C(O)[C@H]1CCCN1C(=O)Cc1ccc(F)cc1Cl [BnH12012, (2-(2-chloro-4-fluorophenyl)acetyl)-D-proline]	95	90
